Compound: COc1cc2ncn(-c3cc(OCc4ccccc4C(F)(F)F)c(C(N)=O)s3)c2cc1OC
Experiment: relative viability (nuclei count vs DMSO), 5 days (fraction); higher = more cells survive
Method in brief: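 Nuclei counted with MetaXpress define viability as the ratio of treated to vehicle wells, given as a median across plates. The lung cancer cell lines were in 1536-well plates, pinned with five √10-spaced library-drug doses and imaged at 4× after 5 days and Hoechst staining. Plates passed with control CV below 25% and at least one doubling.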

| Cell Line | relative viability (0.05 µM) | relative viability (0.1581 µM) | relative viability (0.5 µM) | relative viability (1.581 µM) | relative viability (5 µM) |
| --- | --- | --- | --- | --- | --- |
| 201T | 0.994 | 1.02 | 0.995 | 0.377 | 0.294 |
| A-427 | 1.05 | 1 | 0.886 | 0.297 | 0.128 |
| ABC-1 | 0.807 | 0.937 | 0.736 | 0.311 | 0.241 |
| BEN | 1.01 | 0.965 | 0.845 | 0.396 | 0.383 |
| CAL-12T | 0.827 | 0.836 | 0.565 | 0.249 | 0.193 |
| COR-L23 | 1.05 | 1.03 | 0.692 | 0.128 | 0.147 |
| COR-L 105 | 0.908 | 0.903 | 0.654 | 0.407 | 0.272 |
| Calu-6 | 0.956 | 0.835 | 0.268 | 0.117 | 0.11 |
| ChaGo-K-1 | 1.04 | 0.991 | 0.948 | 0.335 | 0.2 |
| EKVX | 1.02 | 0.99 | 0.77 | 0.394 | 0.629 |
| EMC-BAC-2 | 1.29 | 1.06 | 0.805 | 0.435 | 0.239 |
| EPLC-272H | 0.615 | 0.946 | 0.269 | 0.124 | 0.101 |
| H3255 | 0.971 | 0.947 | 0.866 | 0.398 | 0.608 |
| HARA | 1.01 | 0.853 | 0.8 | 0.176 | 0.0967 |
| HCC-15 | 0.944 | 0.964 | 0.437 | 0.157 | 0.122 |
| HCC-44 | 0.985 | 1 | 0.871 | 0.204 | 0.211 |
| HCC-78 | 1.03 | 0.998 | 0.749 | 0.623 | 0.47 |
| HCC-366 | 1.02 | 0.927 | 0.429 | 0.0311 | 0.0273 |
| HCC-827 | 1.04 | 0.986 | 0.901 | 0.541 | 0.341 |
| HOP-62 | 1.03 | 1.01 | 0.861 | 0.336 | 0.161 |
| IA-LM | 0.865 | 0.81 | 0.109 | 0.0808 | 0.0819 |
| LC-2-ad | 0.941 | 0.918 | 0.351 | 0.195 | 0.227 |
| LCLC-97TM1 | 1.1 | 1.08 | 0.665 | 0.132 | 0.127 |
| LCLC-103H | 1.02 | 1.12 | 0.915 | 0.442 | 0.224 |
| LK-2 | 1.07 | 1.03 | 0.446 | 0.222 | 0.211 |
| LOU-NH91 | 0.97 | 1.03 | 0.801 | 0.455 | 0.531 |

| Cell Line | relative viability (0.05 µM) | relative viability (0.1581 µM) | relative viability (0.5 µM) | relative viability (1.581 µM) | relative viability (5 µM) |
| --- | --- | --- | --- | --- | --- |
| LU99A | 0.894 | 1.08 | 0.681 | 0.253 | 0.203 |
| LXF-289 | 0.977 | 0.82 | 0.674 | 0.132 | 0.0998 |
| NCI-H23 | 0.999 | 0.635 | 0.348 | 0.151 | 0.115 |
| NCI-H322M | 0.982 | 1.11 | 0.79 | 0.517 | 0.325 |
| NCI-H358 | 0.908 | 1.03 | 0.475 | 0.166 | 0.164 |
| NCI-H441 | 0.846 | 0.683 | 0.209 | 0.217 | 0.196 |
| NCI-H460 | 0.986 | 0.946 | 0.603 | 0.0622 | 0.0847 |
| NCI-H520 | 0.946 | 0.975 | 0.649 | 0.212 | 0.198 |
| NCI-H522 | 1.02 | 0.91 | 0.935 | 0.561 | 0.308 |
| NCI-H596 | 0.946 | 1.04 | 0.756 | 0.406 | 0.284 |
| NCI-H647 | 0.956 | 0.881 | 0.432 | 0.0899 | 0.0672 |
| NCI-H650 | 0.913 | 0.961 | 0.69 | 0.33 | 0.349 |
| NCI-H661 | 0.979 | 0.998 | 0.685 | 0.348 | 0.333 |
| NCI-H727 | 0.991 | 0.752 | 0.687 | 0.395 | 0.417 |
| NCI-H838 | 0.971 | 1.03 | 0.764 | 0.176 | 0.153 |
| NCI-H1355 | 0.974 | 0.957 | 0.534 | 0.197 | 0.185 |
| NCI-H1395 | 0.964 | 0.925 | 0.68 | 0.4 | 0.314 |
| NCI-H1437 | 1.02 | 0.898 | 0.507 | 0.21 | 0.18 |
| NCI-H1563 | 1.02 | 0.984 | 0.888 | 0.865 | 0.654 |
| NCI-H1648 | 1.04 | 0.919 | 0.404 | 0.241 | 0.181 |
| NCI-H1650 | 0.899 | 0.951 | 0.396 | 0.19 | 0.147 |
| NCI-H1651 | 1.05 | 0.992 | 0.77 | 0.398 | 0.221 |
| NCI-H1666 | 0.971 | 0.907 | 0.74 | 0.451 | 0.449 |
| NCI-H1703 | 1.1 | 0.886 | 0.52 | 0.148 | 0.194 |
| NCI-H1734 | 1.02 | 1.02 | 0.591 | 0.224 | 0.174 |
| NCI-H1755 | 0.965 | 1.02 | 0.96 | 0.475 | 0.371 |

| Cell Line | relative viability (0.05 µM) | relative viability (0.1581 µM) | relative viability (0.5 µM) | relative viability (1.581 µM) | relative viability (5 µM) |
| --- | --- | --- | --- | --- | --- |
| NCI-H1792 | 1.11 | 0.894 | 0.403 | 0.16 | 0.103 |
| NCI-H1793 | 1.08 | 1.12 | 0.568 | 0.208 | 0.191 |
| NCI-H1915 | 1.01 | 0.947 | 0.784 | 0.132 | 0.105 |
| NCI-H1944 | 1.18 | 1.03 | 0.707 | 0.23 | 0.141 |
| NCI-H1975 | 1.09 | 0.902 | 0.643 | 0.226 | 0.17 |
| NCI-H1993 | 1.1 | 0.855 | 0.469 | 0.605 | 0.534 |
| NCI-H2009 | 0.909 | 0.905 | 0.472 | 0.232 | 0.174 |
| NCI-H2023 | 0.955 | 1.07 | 0.566 | 0.115 | 0.0893 |
| NCI-H2085 | 0.925 | 1.03 | 0.759 | 0.402 | 0.407 |
| NCI-H2087 | 1.08 | 0.923 | 0.628 | 0.135 | 0.124 |
| NCI-H2126 | 1.02 | 1 | 0.754 | 0.329 | 0.236 |
| NCI-H2170 | 1.01 | 0.907 | 0.473 | 0.202 | 0.197 |
| NCI-H2228 | 1.01 | 0.853 | 0.417 | 0.166 | 0.188 |
| NCI-H2342 | 1.09 | 1 | 0.855 | 0.623 | 0.466 |
| NCI-H2347 | 1.05 | 0.932 | 0.848 | 0.564 | 0.501 |
| NCI-H2405 | 1.13 | 0.769 | 0.665 | 0.428 | 0.351 |
| NCI-H3122 | 1 | 0.872 | 0.317 | 0.145 | 0.173 |
| PC-3 [JPC-3] | 1.06 | 0.985 | 0.636 | 0.303 | 0.296 |
| PC-14 | 0.988 | 0.923 | 0.661 | 0.141 | 0.0894 |
| RERF-LC-KJ | 0.987 | 1.07 | 0.584 | 0.297 | 0.471 |
| SK-LU-1 | 1.05 | 0.871 | 0.603 | 0.261 | 0.233 |
| SK-MES-1 | 1.02 | 0.931 | 0.622 | 0.194 | 0.269 |
| SW 900 | 0.91 | 0.827 | 0.638 | 0.275 | 0.176 |
| SW 1573 | 1.06 | 0.963 | 0.547 | 0.173 | 0.325 |
| UMC-11 | 0.913 | 0.708 | 0.329 | 0.182 | 0.145 |

— the supplement of paper PMC10307832
